Reference: US9289409B2, “Sulindac formulations in a biodegradable material” (Warsaw Orthopedic, Inc., priority 2008, dated 2016)

Columns and labels:
[1] = tested on: Rat Chronic Constriction Injury Model; experiment: von Frey test, mechanical allodynia, rat chronic constriction injury (Bennett) model; format: in vivo, Wistar rat; conditions: sulindac intraperitoneally 0.4 mg/kg/day; days 8-57; FIG. 4
Description: (§1) The inventors evaluated the efficacy of a 5 Month Sulindac/Polymer Drug Depot in the Rat Chronic Constriction Injury Model. The animal model was the Bennett Model (Wistar rat). The purpose: To determine whether a 5 month polymer sulindac-eluting depot can improve pain associated behavioral responses in a rat model of neuropathic pain.
(§2) Experimental Design: Four loose chromic gut ligatures, 1 mm apart, were tied around the common sciatic nerve at mid-thigh. Each animal received treatment of test or control article-according to the dosing described in Table 4.
(§3) To date, the inventors have conducted the present study for a period of 57 days and have employed the following two tests: (1) the Hargreaves test on days 7, 14, 21, 28, 35, 42, 49, and 56; and (2) the von Frey test on days 8, 15, 22, 29, 36, 43, 50, and 57. The results of theses tests are summarized in FIGS. 3-6 and show the efficacy of sulindac of the recited time periods.

[2] = tested on: Rat Chronic Constriction Injury Model; experiment: Hargreaves test, thermal hyperalgesia, rat chronic constriction injury (Bennett) model; format: in vivo, Wistar rat; conditions: sulindac intraperitoneally 0.4 mg/kg/day; days 7-56; FIG. 3
Description: as §1, §2, §3

SMILES: CC1=C(CC(=O)O)c2cc(F)ccc2/C1=C\c1ccc([S+](C)[O-])cc1 (centres unmarked) [sulindac]
- pain behavioral response (percentage of baseline), mechanical allodynia, compared to unloaded polymer depots [1]: reduced the behavioral response
- pain behavioral response (percentage of baseline), thermal hyperalgesia, compared to unloaded polymer depot [2]: consistently reduced the behavioral response
